{
  "source": "patent US20150044316A1",
  "about": "“METHOD FOR PREPARING A PURIFIED EXTRACT OF LONICERA JAPONICA THUNBERG AND THE COMPOSITION COMPRISING THE SAME FOR PREVENTING AND TREATING SEPSIS AND SEPTIC SHOCK” (Huons Co., Ltd., priority 2012, published 2015)",
  "test_system": "severe sepsis CLP model",
  "details": "severe sepsis CLP mice",
  "experimental": "To assess the treating activity of the combination of the purified extract prepared in the Examples with antibiotics on severe sepsis, following experiment was performed by using severe sepsis CLP model according to the modified procedure disclosed in the procedure (Daniel Rittirsch, et al. Immuodesign of Experimental sepsis by cecal ligation and puncture. Nature Protocols, Vol. 4(1), pp 31-36, 2009).\nAnesthetic(ketamine hydrochloride, 100 mg/kg, Yuhan Pharm. Co.) was intraperitoneally injected to the mice (ICR female, 23-25 g, 8 weeks-old, www.dhbiolink.com) and sepsis was induced to the mice using by CLP (Cecal ligation and puncture). Cavus abdominis medians was dissected and cecum was exposed to ligate the distal ileocecal valve by silk suture (medical suture thread No. 1 & No. 2, www. lead-care.com), Two-holes were made at the cecum by a thread so as to exude the certain amount of fecal material. The cecum was put into the abdominal cavity together with fecal material and physiological saline solution was subcutaneously injected thereto to induce sepsis.\nIn particular, the suturing position of the distal ileocecal valve was changed and the number of puncture was more than 2 to increase the amount of fecal material in this experiment in order to inducing severe sepsis CLP model.",
  "key": {"[1]": {"details": "imipenem 25 mg/kg, HS-23 40 mg/kg"}},
  "data": [
    {"smiles": "C[C@@H](O)[C@H]1C(=O)N2C(C(=O)O)=C(SCCN=CN)C[C@H]12", "note": "[Imipenem, imipenem]", "values": [
      {"measurement": "survival rate at 1st day after the CLP", "setting": "imipenem 25 mg/kg every 12 hours for 4 days, HS-23 40 mg/kg i.v.", "value": 83, "unit": "%"},
      {"measurement": "final survival rate at 10th days", "setting": "[1]", "value": 33, "unit": "%"},
      {"measurement": "survival rate at 2nd day after the CLP", "setting": "[1]", "value": 58, "unit": "%"},
      {"measurement": "survival rate at 3rd day after the CLP", "setting": "[1]", "value": 50, "unit": "%"},
      {"measurement": "survival rate at 4th day to 10th day after the CLP", "setting": "[1]", "value": 42, "unit": "%"}
    ]}
  ]
}
